Results published in patent US20230348622A1, “USE OF LANCL1 AND ANTIBODIES THEREOF AS A DIAGNOSTIC AND THERAPEUTIC TARGET FOR THE MANAGEMENT AND TREATMENT OF CANCER” (The University of Hong Kong, priority 2022, published 2023).

Tested on: PLC/PRF/5 and MHCC-97L cells
Assay: Intracellular ROS level in LANCL1-KD HCC cells
Format: cell-based, human
Conditions: addition of oxidizing agent

## CC(C)(C)OO [TBHP, tert-Butyl hydroperoxide]
  ROS levels: significantly increased
